The subject of one series is E. coli BL21(DE3). Kind of series: Incubation of cholic acid with E. coli culture, HPLC detection of the oxidation product. Format: cell-based. The note with it: 20 mM cholic acid added to 5 ml of culture.
In series [1] the test system is E. coli BL21(DE3) Δ7α-HSDH. Kind of series: Incubation of cholic acid with knockout strain culture, HPLC detection of the oxidation product. Format: cell-based. The note with it: 20 mM cholic acid added to 5 ml of culture.
For series [2], the target named is T1, 7β-HSDH obtainable from Collinsella aerofaciens DSM 3979 (Collinsella aerofaciens, UniProt A4ECA9).
T1 sequence (A4ECA9 1-263): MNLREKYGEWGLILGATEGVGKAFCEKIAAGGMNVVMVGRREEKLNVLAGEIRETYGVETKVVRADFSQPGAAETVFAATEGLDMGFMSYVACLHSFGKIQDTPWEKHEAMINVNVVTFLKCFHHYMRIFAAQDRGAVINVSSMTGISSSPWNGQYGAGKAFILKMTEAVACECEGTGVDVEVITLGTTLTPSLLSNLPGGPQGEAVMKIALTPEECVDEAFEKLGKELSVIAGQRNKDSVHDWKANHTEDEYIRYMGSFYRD
The series can be described thus: Kinetic parameters of 7β-HSDH for substrates/cofactors.

Substrate in series [3]: C[C@H](CCC(=O)O)[C@H]1CC[C@H]2[C@@H]3C(=O)C[C@@H]4CC(=O)CC[C@]4(C)[C@H]3CC(=O)[C@]12C
Kind of series: purified protein, by the assay type. To be noted: other: substrate/cofactor of 7β-HSDH.

Substrate in series [4]: C[C@H](CCC(=O)O)[C@H]1CC[C@H]2[C@@H]3[C@@H](O)C[C@@H]4C[C@H](O)CC[C@]4(C)[C@H]3CC[C@]12C
Kind of series: purified protein, by the assay type. The note with it: other: substrate/cofactor of 7β-HSDH.

For the molecule `C[C@H](CCC(=O)O)[C@H]1CC[C@H]2[C@@H]3[C@H](O)C[C@@H]4C[C@H](O)CC[C@]4(C)[C@H]3C[C@H](O)[C@]12C` [cholic acid, Cholic acid], the “7α-HSDH activity against cholic acid (oxidation to 7-keto-3,12-dihydroxycholanic acid)” value in the series with E. coli BL21(DE3) is “clearly showed 7α-HSDH activity”. Also, the “oxidation product 7-keto-3,12-dihydroxycholanic acid detected by HPLC” value in series [1] is listed as “No oxidation product”.
For the molecule `C[C@H](CCC(=O)O)[C@H]1CC[C@H]2[C@@H]3C(=O)C[C@@H]4C[C@H](O)CC[C@]4(C)[C@H]3CC[C@]12C` [7-keto-LCA, 7-Ketolithocholic acid], in series [2], the kcat is given as 950.77 1 μmol/(μmol × min). Also, in series [2] (1 U = 1 μmol/min), the Vmax worked out at 30.77 U/mg protein.

B1: 7β-HSDH obtainable from Collinsella aerofaciens DSM 3979 (Collinsella aerofaciens ATCC 25986) (protein)
chain: MNLREKYGEWGLILGATEGVGKAFCEKIAAGGMNVVMVGRREEKLNVLAGEIRETYGVETKVVRADFSQPGAAETVFAATEGLDMGFMSYVACLHSFGKIQDTPWEKHEAMINVNVVTFLKCFHHYMRIFAAQDRGAVINVSSMTGISSSPWNGQYGAGKAFILKMTEAVACECEGTGVDVEVITLGTTLTPSLLSNLPGGPQGEAVMKIALTPEECVDEAFEKLGKELSVIAGQRNKDSVHDWKANHTEDEYIRYMGSFYRD
As for B1, in series [3], the Km came out at 9.23 µM and the Vmax is 28.3 µmol/min/mg. Also, in series [4], the Km stood at 6.23 µM and the Vmax came to 38.2 µmol/min/mg.

The Km is the concentration of substrate that gives half-maximal velocity.
